Reference: ChEMBL document CHEMBL3351613, “Indolylarylsulfones carrying a heterocyclic tail as very potent and broad spectrum HIV-1 non-nucleoside reverse transcriptase inhibitors” (J Med Chem, 2014)
Activity calls are given as the source filed them. The calls are words filed in the database; no cut-off is given here.

Key:
[1] = test system: Human immunodeficiency virus 1; test: Antiviral activity against HIV1 Clade A/E (ID12) infected in human PBMC assessed as reduction in p24 antigen production; format: functional, organism-based; details: Human immunodeficiency virus 1, Clade A/E (ID12)
[2] = test system: Human immunodeficiency virus 2; test: Antiviral activity against HIV2 ROD infected in human PBMC cells assessed as reduction in p24 antigen production; format: functional, organism-based; details: ISOLATE ROD
[3] = biological target: Human immunodeficiency virus type 1 reverse transcriptase (Human immunodeficiency virus 1, UniProt Q72547, K103N)
Description: Inhibition of wild type HIV1 reverse transcriptase K103N mutant assessed as reduction in enzyme activity

[4] = test system: Human immunodeficiency virus 1; format: functional, organism-based; details: Human immunodeficiency virus 1, NL4-3, MT4
[5] = test system: Human immunodeficiency virus 1; test: Antiviral activity against HIV1 Clade B (BaL) infected in human PBMC assessed as reduction in p24 antigen production; format: functional, organism-based; details: Human immunodeficiency virus 1, Clade B (BaL)
[6] = biological target: Human immunodeficiency virus type 1 reverse transcriptase (Human immunodeficiency virus 1, UniProt Q72547, L100I)
Description: Inhibition of wild type HIV1 reverse transcriptase L100I mutant assessed as reduction in enzyme activity

[7] = biological target: T1, Human immunodeficiency virus type 1 reverse transcriptase (Human immunodeficiency virus 1, UniProt Q72547)
Description: Inhibition of wild type HIV1 reverse transcriptase assessed as reduction in enzyme activity

[8] = test system: Human immunodeficiency virus 1; format: functional, organism-based; details: Human immunodeficiency virus 1, NL4-3, MT4; remark: listed apart in the source
[9] = test system: Human immunodeficiency virus 1; test: Antiviral activity against HIV1 Clade A (UG273) infected in human PBMC assessed as reduction in p24 antigen production; format: functional, organism-based; details: Human immunodeficiency virus 1, Clade A (UG273)
[10] = test system: Human immunodeficiency virus 1; test: Antiviral activity against HIV1 Clade G (HH8793) infected in human PBMC assessed as reduction in p24 antigen production; format: functional, organism-based; details: Human immunodeficiency virus 1, Clade G (HH8793)
[11] = biological target: Human immunodeficiency virus type 1 reverse transcriptase (Human immunodeficiency virus 1, UniProt Q72547, V106A); test: Inhibition of […] HIV1 reverse transcriptase V106A mutant assessed as reduction in enzyme activity
[12] = test system: Human immunodeficiency virus 1; test: Antiviral activity against HIV1 Clade C (DJ259) infected in human PBMC assessed as reduction in p24 antigen production; format: functional, organism-based; details: Human immunodeficiency virus 1, Clade C (DJ259)
[13] = test system: Human immunodeficiency virus 1; test: Antiviral activity against HIV1 Clade D (UG270) infected in human PBMC assessed as reduction in p24 antigen production; format: functional, organism-based; details: Human immunodeficiency virus 1, Clade D (UG270)
[14] = test system: Human immunodeficiency virus 1; format: functional, organism-based; details: Human immunodeficiency virus 1, NL4-3, MT4; remark: listed apart in the source
[15] = test system: Human immunodeficiency virus 1; test: Antiviral activity against HIV1 NL4-3 infected in human MT4 cells assessed as reduction in virus-induced cell death by MTT assay; format: functional, organism-based; details: Human immunodeficiency virus 1, NL4-3, MT4
[16] = test system: Human immunodeficiency virus 1; test: Antiviral activity against HIV1 NL4-3 expressing reverse transcriptase K103N mutant infected in human MT4 cells assessed as reduction in virus-induced cell death by MTT assay; format: functional, organism-based; details: Human immunodeficiency virus 1, NL4-3, MT4
[17] = biological target: T1, Human immunodeficiency virus type 1 reverse transcriptase; remark: listed apart in the source
[18] = test system: Human immunodeficiency virus 1; test: Antiviral activity against HIV1 Clade F (BZ162) infected in human PBMC assessed as reduction in p24 antigen production; format: functional, organism-based; details: Human immunodeficiency virus 1, Clade F (BZ162)
[19] = Cytotoxic activity against human MT4 cells by MTT assay; format: cell-based
[20] = in vitro; details: human, MT4 cells
Description: Selectivity index, ratio of CC50 for human MT4 cells to EC50 for HIV1 NL4-3 infected in human MT4 cells

[21] = test system: Human immunodeficiency virus 1; test: Antiviral activity against HIV1 NL4-3 expressing reverse transcriptase L100I mutant infected in human MT4 cells assessed as reduction in virus-induced cell death by MTT assay; format: functional, organism-based; details: Human immunodeficiency virus 1, NL4-3, MT4
[22] = biological target: Human immunodeficiency virus type 1 reverse transcriptase (Human immunodeficiency virus 1, UniProt Q72547, Y181I)
[23] = test system: Human immunodeficiency virus 1; test: Antiviral activity against HIV1 3B infected in human CEM cells assessed as protection against virus-induced cytopathicity by giant cell formation assay; format: functional, organism-based; details: Human immunodeficiency virus 1, 3B, CCRF-CEM
[24] = test system: Human immunodeficiency virus 2; test: Antiviral activity against HIV2 ROD infected in human CEM cells assessed as protection against virus-induced cytopathicity by giant cell formation assay; format: functional, organism-based; details: Human immunodeficiency virus 2, ISOLATE ROD, CCRF-CEM

SMILES	IC50 [3]	EC50 [4]	IC50 [6]	IC50 [7]	EC50 [8]	EC50 [14]	EC50 [15]	EC50 [16]	CC50 [19]	selectivity ratio [20]	EC50 [21]	IC50 [22]	EC50 [23]	EC50 [24]	further results
Cc1cc(C)cc(S(=O)(=O)c2c(C(=O)N[C@@H](C)c3ccncc3)[nH]c3ccc(Cl)cc23)c1	700 nM	5170 nM	20 nM	40 nM	128 nM	4120 nM	0.2 nM	4.3 nM	–	–	–	–	–	–	EC50 [1]: 4.1 nM; Activity [2]: inactive; EC50 [5]: 2 nM; EC50 [9]: 5.2 nM; EC50 [10]: 3.6 nM; IC50 [11]: 55 nM; EC50 [12]: 1.4 nM; EC50 [13]: 4.3 nM; IC50 [17]: 110000 nM; EC50 [18]: 4.9 nM
NC(=O)c1[nH]c2ccc(Cl)cc2c1S(=O)(=O)c1c(Cl)cccc1Cl	–	> 16000 nM	–	–	5170 nM	16000 nM	0.25 nM	> 16000 nM	16000 nM	64100	–	–	–	–	–
Cc1cc(C)cc(S(=O)(=O)c2c(C(=O)NC(C)c3ccccn3)[nH]c3ccc(Cl)cc23)c1 (racemic)	100 nM	–	30 nM	64 nM	230 nM	6000 nM	0.6 nM	34 nM	54600 nM	91000	45 nM	11100 nM	3.2 nM	> 10000 nM	–
Cc1cc(C)cc(S(=O)(=O)c2c(C(=O)NC(C)c3cccnc3)[nH]c3ccc(Cl)cc23)c1 (racemic)	120 nM	–	20 nM	100 nM	220 nM	8480 nM	0.6 nM	34 nM	54600 nM	91000	20 nM	> 20000 nM	6.6 nM	> 10000 nM	–
O=C(NCc1ccncc1)c1[nH]c2ccc(Cl)cc2c1S(=O)(=O)c1c(Cl)cccc1Cl	–	> 50500 nM	–	–	2530 nM	> 50500 nM	0.81 nM	5260 nM	> 50300 nM	> 62400	–	–	–	–	–
Cc1cc(C)cc(S(=O)(=O)c2c(C(=O)NCCn3c([N+](=O)[O-])cnc3C)[nH]c3ccc(Cl)cc23)c1	640 nM	–	160 nM	44 nM	670 nM	> 48500 nM	0.62 nM	140 nM	25400 nM	40900	140 nM	131 nM	4.1 nM	> 10000 nM	–
Cc1cc(C)cc(S(=O)(=O)c2c(C(=O)NCc3ccco3)[nH]c3ccc(Cl)cc23)c1	9 nM	45 nM	–	3 nM	0.8 nM	971 nM	0.2 nM	–	> 56400 nM	> 282000	–	234 nM	–	–	–
Cc1cccc(C)c1S(=O)(=O)c1c(C(=O)NCc2ccncc2)[nH]c2ccc(Cl)cc12	–	> 55100 nM	–	–	> 55100 nM	> 55100 nM	330 nM	> 55100 nM	> 55100 nM	> 167	–	–	–	–	–
Cc1cc(C)cc(S(=O)(=O)c2c(C(=O)NC(C)c3ccccc3)[nH]c3ccc(Cl)cc23)c1 (stereo unspecified)	–	–	70 nM	–	–	–	–	–	> 53500 nM	> 206000	26 nM	8230 nM	–	> 10000 nM	–
Cc1cc(C)cc(S(=O)(=O)c2c(C(=O)NC(C)c3cccs3)[nH]c3ccc(Cl)cc23)c1 (stereo unspecified)	79 nM	347 nM	–	27 nM	68 nM	2640 nM	0.2 nM	2.1 nM	32300 nM	162000	–	–	–	–	–
Cc1cc(C)cc(S(=O)(=O)c2c(C(=O)NCc3cccs3)[nH]c3ccc(Cl)cc23)c1	> 20000 nM	–	100 nM	30 nM	160 nM	> 54500 nM	0.7 nM	9.1 nM	> 54500 nM	> 77800	7.1 nM	> 20000 nM	5.2 nM	> 10000 nM	–
O=C1Nc2ccc(Cl)cc2[C@@](C#CC2CC2)(C(F)(F)F)O1 [EFAVIRENZ]	–	–	–	–	–	> 317 nM	–	–	> 15800 nM	–	22 nM	–	–	–	–
Cc1cc(C)cc(S(=O)(=O)c2c(C(=O)NCc3ccccc3)[nH]c3ccc(Cl)cc23)c1	> 20000 nM	90 nM	–	–	–	1920 nM	0.22 nM	0.9 nM	38000 nM	173000	–	> 20000 nM	–	–	–
Cc1cc(C)cc(S(=O)(=O)c2c(C(=O)NN(C)c3ccccc3)[nH]c3ccc(Cl)cc23)c1	234 nM	> 42700 nM	–	16 nM	1470 nM	> 42700 nM	2.1 nM	64.1 nM	44100 nM	21000	–	> 20000 nM	–	–	–
Cc1cc(C)cc(S(=O)(=O)c2c(C(=O)NNc3ccncc3)[nH]c3ccc(Cl)cc23)c1	> 20000 nM	–	9400 nM	> 20000 nM	> 20000 nM	55000 nM	41.7 nM	16000 nM	30300 nM	727	–	> 20000 nM	730 nM	≥ 50000 nM	–
Cc1cc(C)cc(S(=O)(=O)c2c(C(=O)Nc3ccncc3)[nH]c3ccc(Cl)cc23)c1	–	1270 nM	–	–	16 nM	> 20600 nM	0.23 nM	–	20600 nM	89600	–	–	–	–	–
Cc1cccc(C)c1S(=O)(=O)c1c(C(N)=O)[nH]c2ccc(Cl)cc12	–	> 48900 nM	–	–	42700 nM	> 48900 nM	44.1 nM	> 49400 nM	> 48900 nM	> 1110	–	–	–	–	–
Cc1ccnc2c1NC(=O)c1cccnc1N2C1CC1 [NEVIRAPINE]	–	> 3760 nM	–	–	> 3760 nM	> 3760 nM	112 nM	> 3760 nM	> 18800 nM	–	60 nM	–	–	–	–
Cc1cc(C)cc(S(=O)(=O)c2c(C(=O)NCCc3cccs3)[nH]c3ccc(Cl)cc23)c1	42 nM	–	1 nM	70 nM	160 nM	> 52900 nM	0.84 nM	21 nM	> 52900 nM	> 62900	5.4 nM	> 20000 nM	3.4 nM	> 50000 nM	–
Cc1cc(C)cc(S(=O)(=O)c2c(C(=O)NCc3ccncn3)[nH]c3ccc(Cl)cc23)c1	96 nM	50.6 nM	–	42 nM	2.2 nM	132 nM	0.22 nM	–	> 55000 nM	> 250000	–	4.2 nM	–	–	–
Cc1cc(C)cc(S(=O)(=O)c2c(C(=O)NCCc3ccccc3)[nH]c3ccc(Cl)cc23)c1	–	> 36400 nM	–	–	107 nM	> 53500 nM	2.1 nM	21 nM	37900 nM	18000	–	> 20000 nM	–	–	–
Cc1cc(C)cc(S(=O)(=O)c2c(C(=O)Nc3cccc(N)c3)[nH]c3ccc(Cl)cc23)c1	310 nM	947 nM	–	19 nM	66 nM	2140 nM	0.22 nM	4.4 nM	23800 nM	108000	57 nM	226 nM	17 nM	–	–
Cc1cc(C)cc(S(=O)(=O)c2c(C(=O)NC(C)c3ccncc3)[nH]c3ccc(Cl)cc23)c1 (racemic)	220 nM	–	30 nM	40 nM	87 nM	1110 nM	0.2 nM	9.4 nM	30200 nM	151000	4.7 nM	3550 nM	4.1 nM	> 10000 nM	IC50 [11]: 40 nM; IC50 [17]: 3500 nM
Cc1cc(C#N)cc(C)c1Oc1nc(Nc2ccc(C#N)cc2)nc(N)c1Br [ETRAVIRINE]	–	33 nM	–	–	6 nM	16 nM	3.7 nM	16 nM	> 30600 nM	–	–	–	–	–	–
